Laboratory results taken from PubChem BioAssay (NCI).
“And” between values parts separate entries of the source, which are not always exact repeats. Identical values can stand only once.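 Assay format: 96-well plates, 48-hour exposure. GI50 = concentration required for 50% inhibition of growth. TGI marks complete inhibition of growth.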

What was measured:
Assay in all cases: growth of human tumour cells (NCI), 48 h
ACHN renal = test system: ACHN renal
HCC-2998 colon = test system: HCC-2998 colon
RPMI-8226 leukemia = test system: RPMI-8226 leukemia
SW-620 colon = test system: SW-620 colon
SN12C renal = test system: SN12C renal
MALME-3M melanoma = test system: MALME-3M melanoma
U251 CNS = test system: U251 CNS
UO-31 renal = test system: UO-31 renal
TK-10 renal = test system: TK-10 renal
CCRF-CEM leukemia = test system: CCRF-CEM leukemia

Row | SMILES | TGI (ACHN renal) | TGI (HCC-2998 colon) | TGI (RPMI-8226 leukemia) | TGI (SW-620 colon) | TGI (SN12C renal) | TGI (MALME-3M melanoma) | TGI (U251 CNS) | TGI (UO-31 renal) | TGI (TK-10 renal) | GI50 (ACHN renal) | GI50 (RPMI-8226 leukemia) | GI50 (SW-620 colon) | GI50 (SN12C renal) | GI50 (MALME-3M melanoma) | GI50 (U251 CNS) | GI50 (CCRF-CEM leukemia) | TGI (CCRF-CEM leukemia) | GI50 (UO-31 renal) | GI50 (TK-10 renal) | GI50 (HCC-2998 colon)
1 | O=c1c2ccccc2[se]n1-c1cccnc1 | 88.1 µM | 33.8 µM | 86.9 µM | 83.3 µM | 99.4 µM | 50.7 µM | 76 µM | 93.7 µM | 50.1 µM |  |  |  |  |  |  |  |  |  |  | 
2 | O=C1CN=C(C[N+](=O)[O-])c2ccccc21 | > 100 µM |  | > 100 µM | > 100 µM | > 100 µM | > 100 µM | > 100 µM | > 100 µM |  |  |  |  |  |  |  |  |  |  |  | 
3 | CC(=O)OC1Oc2ccccc2-c2oc(=O)c(-c3cc(=O)oc4cc(O)ccc34)cc21 (configuration not stated) | 79.2 µM |  | 44.1 µM | 74.4 µM | > 100 µM | 59.2 µM | 65.3 µM | 58.9 µM | > 100 µM | 23.1 µM | 13.1 µM | 25.8 µM | 30.9 µM | 20.9 µM | 24 µM | 9.38 µM | 40.8 µM | 22.2 µM | 32.6 µM | 
4 | COC(=O)c1cc2c(cc1O)[C@@H](NC(C)=O)CCc1cc(OC)c(OC)c(OC)c1-2 | > 100 µM |  | > 100 µM | > 100 µM | > 100 µM |  | 1.17 µM | > 100 µM |  | 0.0459 µM | 0.0524 µM | 0.0235 µM | 0.0408 µM | 0.0299 µM | 0.0402 µM | 0.0398 µM | > 100 µM | 0.0626 µM |  | 0.0355 µM
5 | C/C(=C\CCc1ccoc1)CC/C=C(\C)CCCC1=CC(=O)OC1 | > 100 µM | 29.1 µM | 16.7 µM | > 100 µM | 39.6 µM | 31.5 µM |  | 48.7 µM | 63.9 µM | 12.6 µM | 2.85 µM | 12.1 µM | 11.2 µM | 13.7 µM |  |  |  | 4.35 µM | 16.9 µM | 8.4 µM
6 | CC(C)(C)OC(=O)NCC(=O)OCc1ccccc1 | > 100 µM | > 100 µM |  | > 100 µM | > 100 µM | > 100 µM | > 100 µM | > 100 µM | > 100 µM |  |  |  |  |  |  |  | > 100 µM |  |  | 
7 | Ic1ccc(Nc2nc3nonc3nc2Nc2ccc(I)cc2)cc1 | > 100 µM | > 100 µM | 0.574 µM | > 100 µM |  | 0.604 µM | > 100 µM |  | > 100 µM | 0.269 µM | 0.107 µM | 0.296 µM |  | 0.167 µM | 0.324 µM | 0.145 µM | > 100 µM |  | 0.321 µM | 0.326 µM
8 | O=S(O)CCCCSSCC(O)C(O)CSSCCCCS(=O)O (configuration not stated) | 68.7 µM and 90 µM |  | 46.4 µM and 46.1 µM | 47.6 µM and 61.8 µM | > 100 µM | 25.8 µM and 35.9 µM | > 100 µM | 67.3 µM and 79.5 µM | > 100 µM |  |  |  |  |  |  |  | 31.9 µM and 26.2 µM |  |  | 
9 | O=C(c1ccccc1)c1cc(Cl)ccc1OCCCCN1CCN(CCCCOc2ccc(Cl)cc2C(=O)c2ccccc2)CC1 | 16.1 µM | 4.05 µM | 2.8 µM | 8.5 µM | 18 µM | 3.77 µM | 4.14 µM | 15.1 µM | 17 µM | 4.64 µM | 1.16 µM | 2.92 µM | 4.48 µM | 1.61 µM | 2.03 µM |  |  | 3.86 µM | 4.26 µM | 2.13 µM
10 | Cc1ccc(SC(C)/C=C/NNC2=NC(c3ccccc3)C(c3ccccc3)=NN2)cc1 (configuration not stated) | > 100 µM | 98.2 µM | > 100 µM | > 100 µM | > 100 µM | > 100 µM |  | 57.5 µM | > 100 µM |  |  |  |  |  |  |  | > 100 µM |  |  | 
11 | C[C@H]1c2cccc(O)c2C(O)=C2C(=O)[C@]3(O)C(O)=C(C(N)=O)C(=O)[C@@H](N(C)C)[C@@H]3[C@@H](O)[C@@H]21 | 23.9 µM | 12.7 µM |  | 14.6 µM | 14.5 µM | 8.57 µM | 11.9 µM | 15.1 µM | 47.2 µM | 3.53 µM |  | 3.02 µM | 3.06 µM | 2.76 µM | 2.98 µM |  |  | 3.15 µM | 4.83 µM | 2.97 µM
12 | CC(O)C(N=Cc1ccccc1[O-])C(=O)[O-].CC(O)C(N=Cc1ccccc1[O-])C(=O)[O-].[Co+2] (configuration not stated) | > 100 µM | > 100 µM | > 100 µM | > 100 µM | > 100 µM | > 100 µM |  | > 100 µM | > 100 µM | > 100 µM | 94.4 µM | 78.2 µM | > 100 µM | > 100 µM |  | 20.1 µM | > 100 µM | 76.5 µM | > 100 µM | 59.8 µM
13 | O=[N+]([O-])c1nccn1CC(O)c1ccc(F)cc1 (configuration not stated) | > 100 µM |  | > 100 µM | > 100 µM | > 100 µM | > 100 µM | > 100 µM | > 100 µM | > 100 µM |  |  |  |  |  |  |  | > 100 µM |  |  | 
14 | COc1ccc(NC(=O)CCc2cc(-c3ccc(O)c(OC)c3)nc(NC#N)n2)cc1 | > 100 µM | > 100 µM |  | > 100 µM | > 100 µM | > 100 µM | > 100 µM | > 100 µM |  |  |  |  |  |  |  |  | > 100 µM |  |  | 
15 | CCCCCCCCCC/C=C/CC(=O)SCCNC(=O)CCNC(=O)[C@@H](O)C(C)(C)COP(=O)(O)OP(=O)(O)OCC1OC(n2cnc3c(N)ncnc32)C(O)C1OP(=O)(O)O (some centres not stated) | > 10 µM | > 10 µM | > 10 µM | > 10 µM | > 10 µM | > 10 µM | > 10 µM |  | > 10 µM |  |  |  |  |  |  |  | > 10 µM |  |  | 
16 | O=[n+]1c2c(n([O-])c3ccccc31)CCCCCCCCCC2 | > 100 µM |  | > 100 µM | > 100 µM | > 100 µM | > 100 µM | > 100 µM | > 100 µM | > 100 µM |  |  |  |  |  |  |  | > 100 µM |  |  | 
17 | Cc1ccc(S(=O)(=O)NCC2CCCCC2=O)cc1 (configuration not stated) |  |  | > 100 µM | > 100 µM | > 100 µM | > 100 µM | > 100 µM | > 100 µM | > 100 µM |  |  |  |  |  |  |  | > 100 µM |  |  | 
18 | O=C1OC(c2ccccc2)=N/C1=C/C=C/c1ccco1 | > 100 µM | > 100 µM |  | > 100 µM | > 100 µM | > 100 µM | > 100 µM | > 100 µM | > 100 µM |  |  |  |  |  |  |  | > 100 µM |  |  | 
19 | Cc1ccccc1N1C(=O)/C(=C/c2ccc(N(CCC#N)CCC#N)cc2)N=C1c1cc([N+](=O)[O-])ccc1Cl | > 100 µM | > 100 µM | > 100 µM | > 100 µM | > 100 µM | > 100 µM | > 100 µM | > 100 µM |  |  |  |  |  |  |  |  | > 100 µM |  |  | 
